Measurements published in ChEMBL document CHEMBL1142604, “Chamazulene carboxylic acid and matricin: a natural profen and its natural prodrug, identified through similarity to synthetic drug substances” (J Nat Prod, 2006).

Legend:
Rattus norvegicus [1] = assay: Antiinflammatory activity in rat assessed as inhibition of carrageenan-induced right paw edema at 300 mg/kg after 1 hr; assay type: functional
Rattus norvegicus [2] = assay: Antiinflammatory activity in rat assessed as inhibition of carrageenan-induced right paw edema at 600 mg/kg after 3 hrs; assay type: functional
Rattus norvegicus [3] = assay: Antiinflammatory activity in rat assessed as inhibition of carrageenan-induced right paw edema at 600 mg/kg after 1 hr; assay type: functional
Mus musculus [4] = assay: Antiinflammatory activity in mouse assessed as inhibition of phorbol […]-induced ear lobe edema at 0.1 umol/ear after 6 hrs relative to control; assay type: functional
[5] = Plasma concentration in human at 300 mg, po after 5 hrs; assay type: ADME, organism-based
[6] = Reduction in prostaglandin metabolite level in human urine at 500 mg, po; assay type: ADME; parameters: scale not given: the % may be the effect or the level left; settings: in vivo
[7] = Lipophilicity, log D at pH 7.4; assay type: physicochemical; settings: buffer
[8] = AUC (0 to infinity) in human at 500 mg, po; assay type: ADME, organism-based; parameters: dose 500 mg, time infinity, route oral; settings: plasma
[9] = Elimination constant, beta in human at 500 mg, po; assay type: ADME, organism-based; settings: in vivo
Mus musculus [10] = assay: Antiinflammatory activity in mouse assessed as inhibition of phorbol […]-induced ear lobe edema at 1 umol/ear after 24 hrs; assay type: functional
[11] = Elimination half life in human at 500 mg, po; assay type: ADME, organism-based; settings: in vivo, read-out: beta t1/2 (converted)
[12] = molecular target: T1, Prostaglandin G/H synthase 1 (Ovis aries) (UniProt P05979); assay: Inhibition of ram COX1 at 50 uM
T1 sequence (whole entry): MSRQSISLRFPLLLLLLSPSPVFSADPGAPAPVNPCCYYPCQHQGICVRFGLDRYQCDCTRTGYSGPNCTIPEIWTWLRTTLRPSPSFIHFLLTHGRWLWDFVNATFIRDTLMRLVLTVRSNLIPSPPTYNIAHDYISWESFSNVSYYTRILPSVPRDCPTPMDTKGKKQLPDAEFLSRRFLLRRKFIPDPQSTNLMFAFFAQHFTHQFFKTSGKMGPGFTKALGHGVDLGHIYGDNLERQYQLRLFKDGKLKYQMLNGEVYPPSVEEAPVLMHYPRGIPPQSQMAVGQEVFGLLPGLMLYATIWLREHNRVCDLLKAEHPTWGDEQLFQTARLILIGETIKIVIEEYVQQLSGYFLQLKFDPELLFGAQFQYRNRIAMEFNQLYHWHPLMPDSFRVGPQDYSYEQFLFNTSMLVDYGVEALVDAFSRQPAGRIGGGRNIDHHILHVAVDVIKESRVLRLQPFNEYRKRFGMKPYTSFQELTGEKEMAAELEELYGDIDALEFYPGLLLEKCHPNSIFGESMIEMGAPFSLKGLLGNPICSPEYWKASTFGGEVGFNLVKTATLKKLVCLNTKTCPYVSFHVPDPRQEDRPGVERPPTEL

Mus musculus [13] = assay: Antiinflammatory activity in mouse assessed as inhibition of phorbol […]-induced ear lobe edema at 1 umol/ear after 48 hrs relative to control; assay type: functional
[14] = Dissociation constant, pKa of the compound; assay type: physicochemical
Homo sapiens [15] = species on record: Homo sapiens; assay: Plasma concentration in human by HPLC assay; assay type: ADME, organism-based; settings: in vivo
Mus musculus [16] = assay: Antiinflammatory activity in mouse assessed as inhibition of phorbol […]-induced ear lobe edema at 0.1 umol/ear after 48 hrs relative to control; assay type: functional
Mus musculus [17] = assay: Antiinflammatory activity in mouse assessed as inhibition of phorbol […]-induced ear lobe edema; assay type: functional; parameters: scale not given: the % may be the effect or the level left
[18] = Cmax in human at 500 mg, po; assay type: ADME, organism-based; parameters: dose 500 mg, route oral; settings: in vivo
[19] = Plasma concentration in human at 300 mg, po after 2.5 hrs; assay type: ADME, organism-based
[20] = Tmax in human at 500 mg, po; assay type: ADME, organism-based; settings: in vivo
Mus musculus [21] = assay: Antiinflammatory activity in mouse assessed as inhibition of phorbol […]-induced ear lobe edema at 1 umol/ear after 6 hrs relative to control; assay type: functional
Homo sapiens [22] = assay: Plasma concentration in human at 500 mg, po after 75 to 90 mins; assay type: ADME, organism-based; settings: in vivo
[23] = Plasma concentration in human at 300 mg, po after 25 hrs; assay type: ADME, organism-based
Homo sapiens [24] = assay: Absorption coefficient, Ka in human at 500 mg, po; assay type: ADME, organism-based; settings: in vivo
Homo sapiens [25] = assay: Volume of distribution in human at 500 mg, po; assay type: ADME, organism-based; settings: in vivo
Mus musculus [26] = assay: Antiinflammatory activity in mouse assessed as inhibition of phorbol […]-induced ear lobe edema at 0.1 umol/ear after 24 hrs relative to control; assay type: functional
[27] = Metabolic stability in artificial gastric fluid assessed as transformation to chamazulene carboxylic acid after 60 mins; assay type: physicochemical; settings: simulated gi fluid, 1 h

Cc1ccc([C@H](C)C(=O)OCOC(=O)C(C)(C)C)cc2c(C)ccc1-2
inhibition in vivo at 300 mg/kg (Rattus norvegicus [1]): 34.8%

COC(=O)[C@@H](C)c1ccc(C)c2ccc(C)c-2c1
inhibition in vivo at 300 mg/kg (Rattus norvegicus [1]): 22.8%

CC(=O)Oc1ccccc1C(=O)O [ASPIRIN]
inhibition in vivo at 600 mg/kg (Rattus norvegicus [2]): 77.3% | inhibition in vivo at 600 mg/kg (Rattus norvegicus [3]): 92.4%

Cc1ccc([C@H](C)C(=O)O)cc2c(C)ccc1-2 [CHAMAZULENE CARBOXYLIC ACID]
inhibition (INH) (Mus musculus [4]): 12% | concentration at 5 h [5]: 2400 ng/mL | Activity [6]: 40% | logD [7]: 0.79 | AUC(0-inf) [8]: 14700 ng·h/mL | inhibition in vivo at 300 mg/kg (Rattus norvegicus [1]): 17.4% | k el [9]: 4.72e-05 s⁻¹ | inhibition (INH) (Mus musculus [10]): 14% | half-life [11]: 4 h | inhibition [12]: 17.4% | inhibition (INH) (Mus musculus [13]): 24% | pKa [14]: 4.14 | Cp (Homo sapiens [15]): 100 ng/mL | inhibition (INH) (Mus musculus [16]): 35% | Activity (Mus musculus [17]): 23% | Cmax [18]: 900 ng/mL | concentration at 2.5 h [19]: 1700 ng/mL | Tmax [20]: 1.25 h | inhibition (INH) (Mus musculus [21]): 38% | Cp (Homo sapiens [22]): 900 ng/mL | concentration at 25 h [23]: 2900 ng/mL | Ka (Homo sapiens [24]): 0.53 h⁻¹ | Vd (Homo sapiens [25]): 133 L | inhibition (INH) (Mus musculus [26]): 19%

CC(C)Cc1ccc([C@H](C)C(=O)O)cc1 [DEXIBUPROFEN]
logD [7]: 1.07

CC(C(=O)O)c1ccc(-c2ccccc2)c(F)c1 (stereo not drawn) [FLURBIPROFEN]
logD [7]: 0.85 | pKa [14]: 4.6

CC(=O)O[C@H]1CC(C)=C2C=C[C@@](C)(O)[C@@H]2[C@H]2OC(=O)[C@@H](C)[C@@H]21 [MATRICIN]
Stability [27]: Stable

COc1ccc2cc([C@H](C)C(=O)O)ccc2c1 [NAPROXEN]
inhibition (INH) (Mus musculus [4]): 28% | inhibition (INH) (Mus musculus [13]): 25% | inhibition (INH) (Mus musculus [16]): 18% | Activity (Mus musculus [17]): 59% | inhibition (INH) (Mus musculus [21]): 45% | inhibition (INH) (Mus musculus [26]): 21%
